This note sets out measurements from ChEMBL document CHEMBL2434911, “Flavone-based analogues inspired by the natural product simocyclinone D8 as DNA gyrase inhibitors” (Bioorg Med Chem Lett, 2013).

Structures are written as SMILES. Calls of active or inactive are those of the source. No cut-off for these calls is given here. Some results are limits rather than exact numbers.

The species named for assay [1] is Bos taurus. Description: Inhibition of supercoiling activity of calf thymus topoisomerase 1 using […] as substrate after 15 mins by ethidium bromide staining.
Assay [2] concerns the target T1, DNA topoisomerase 2-alpha (Homo sapiens, UniProt P11388). Description: Inhibition of cleavage activity of human topoisomerase 2 using relaxed pBR322 as substrate at 200 uM after 10 mins by agarose gel electrophoresis analysis relative to control.
In assay [3] the target is T1, DNA topoisomerase 2-alpha. Description: Inhibition of human topoisomerase 2 using […] as substrate after 10 mins by decatenation assay.
For assay [4], the system named is Escherichia coli. Description: Inhibition of cleavage activity of Escherichia coli DNA gyrase using relaxed pBR322 as substrate at 200 uM after 10 mins by agarose gel electrophoresis analysis relative to control.
The nature of assay [5]: Inhibition of supercoiling activity of Escherichia coli DNA gyrase using relaxed pBR322 as substrate after 15 mins by ethidium bromide staining.
For assay [6], the system named is Escherichia coli. Description: Inhibition of Escherichia coli DNA gyrase interaction to 5'-biotinylated DNA after 4 mins by surface plasmon resonance analysis.

T1 sequence (P11388 whole entry): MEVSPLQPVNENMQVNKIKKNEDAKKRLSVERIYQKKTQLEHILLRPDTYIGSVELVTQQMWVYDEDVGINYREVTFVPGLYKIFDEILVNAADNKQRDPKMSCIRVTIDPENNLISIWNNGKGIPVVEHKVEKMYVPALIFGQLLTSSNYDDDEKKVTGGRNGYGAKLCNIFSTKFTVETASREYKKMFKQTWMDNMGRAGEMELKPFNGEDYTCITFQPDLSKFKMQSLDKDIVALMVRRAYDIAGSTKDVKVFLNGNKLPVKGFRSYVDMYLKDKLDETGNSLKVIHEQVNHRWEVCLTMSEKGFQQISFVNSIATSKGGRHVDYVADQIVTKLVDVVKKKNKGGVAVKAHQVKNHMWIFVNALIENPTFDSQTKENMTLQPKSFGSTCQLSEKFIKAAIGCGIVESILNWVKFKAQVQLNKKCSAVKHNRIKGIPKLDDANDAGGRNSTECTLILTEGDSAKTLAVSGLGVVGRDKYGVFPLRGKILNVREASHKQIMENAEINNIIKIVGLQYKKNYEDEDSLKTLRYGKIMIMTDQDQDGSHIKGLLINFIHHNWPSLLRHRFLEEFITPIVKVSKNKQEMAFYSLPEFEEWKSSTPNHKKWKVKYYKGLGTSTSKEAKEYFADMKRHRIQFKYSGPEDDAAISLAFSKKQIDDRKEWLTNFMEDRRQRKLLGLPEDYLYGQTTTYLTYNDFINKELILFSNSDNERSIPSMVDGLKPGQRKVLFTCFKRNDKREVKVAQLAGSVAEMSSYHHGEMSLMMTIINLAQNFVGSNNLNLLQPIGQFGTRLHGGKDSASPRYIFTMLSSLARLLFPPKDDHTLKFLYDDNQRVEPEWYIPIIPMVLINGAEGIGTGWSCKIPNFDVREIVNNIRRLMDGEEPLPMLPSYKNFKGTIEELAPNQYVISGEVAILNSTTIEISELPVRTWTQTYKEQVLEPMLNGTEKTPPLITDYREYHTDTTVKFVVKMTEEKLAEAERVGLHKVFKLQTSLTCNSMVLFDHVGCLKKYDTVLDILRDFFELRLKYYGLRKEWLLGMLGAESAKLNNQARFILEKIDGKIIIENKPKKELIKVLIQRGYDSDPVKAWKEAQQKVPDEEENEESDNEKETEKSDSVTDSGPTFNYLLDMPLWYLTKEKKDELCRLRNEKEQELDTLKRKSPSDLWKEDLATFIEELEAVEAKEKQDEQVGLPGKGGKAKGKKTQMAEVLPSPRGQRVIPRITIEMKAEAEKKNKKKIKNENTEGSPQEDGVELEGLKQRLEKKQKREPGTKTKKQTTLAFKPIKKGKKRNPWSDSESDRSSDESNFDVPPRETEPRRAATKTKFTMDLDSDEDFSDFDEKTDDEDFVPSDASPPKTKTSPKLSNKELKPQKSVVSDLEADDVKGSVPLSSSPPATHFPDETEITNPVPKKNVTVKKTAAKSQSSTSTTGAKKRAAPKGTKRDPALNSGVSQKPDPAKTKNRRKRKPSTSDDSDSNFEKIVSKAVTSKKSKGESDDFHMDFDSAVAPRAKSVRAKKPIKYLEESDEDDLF

In general, IC50 refers to the point on the concentration scale where inhibition reaches its midpoint. Low readings indicate greater potency, high ones weaker potency. `O=C(CCCCCC(=O)Oc1c(-c2ccc(O)c(O)c2)oc2cc(O)cc(O)c2c1=O)NCC(=O)Nc1ccc(CO)cc1`: the inhibition entry in assay [1] was “inactive”. Moreover, the fold change (FC) is 2.1 in assay [2] and 3 in assay [4]. The IC50 in assay [3] and in assay [5] was > 200 µM each time.

`O=C(CCCCCC(=O)Oc1c(-c2ccc(O)c(O)c2)oc2cc(O)cc(O)c2c1=O)NCC(=O)Nc1ccccc1`: in assay [1], the inhibition entry is “Active”. Also, the results for the fold change (FC) in assay [2] and in assay [4] were 2.7 and 7.8, respectively. For the same molecule, the IC50 was found to be 149 µM in assay [3] and 48.6 µM in assay [5]. Besides, the inhibition result in assay [6] is “inactive”.

For `O=C(O)Cc1ccc(NC(=O)CNC(=O)CCCCCC(=O)Oc2c(-c3ccc(O)c(O)c3)oc3cc(O)cc(O)c3c2=O)cc1`, the inhibition result in assay [1] is “inactive”. The fold change (FC) in assay [2] was < 1; in assay [4], 1.8. Also, the IC50 in assay [3] and in assay [5] was > 200 µM in each case.

Take `CC(=O)O[C@@H]1[C@@H](C)O[C@@H](c2ccc3c(c2O)[C@@H](O)[C@]24O[C@@]2(C3=O)[C@@]2(O)C(=O)C=C(C)C[C@@]2(O)C[C@@H]4O)C[C@H]1OC(=O)/C=C/C=C/C=C/C=C/C(=O)Nc1c(O)c2ccc(O)c(Cl)c2oc1=O` [SIMOCYCLINONE D8]: the fold change (FC) in assay [4] was < 1. The molecule also gave a half-maximal inhibitory concentration (IC50) in assay [5] of 0.41 µM.

As for `O=C(CCCCCC(=O)Oc1c(-c2ccc(O)c(O)c2)oc2cc(O)cc(O)c2c1=O)NCC(=O)Nc1ccc(O)c(CO)c1`, the inhibition result in assay [1] was “inactive”. Moreover, the fold change (FC) in assay [2] was < 1; in assay [4] it was 1.9. The IC50 in assay [3] was 78.9 µM; in assay [5] it was > 200 µM.

Regarding `COC(=O)CCCCCCCCC(=O)Oc1c(-c2ccc(O)c(O)c2)oc2cc(O)cc(O)c2c1=O`, the inhibition entry in assay [1] is “inactive”. Besides, the fold change (FC) in assay [2] and in assay [4] was < 1 each time. Also, the IC50 in assay [3] and in assay [5] was > 200 µM in each case.

As to `O=c1c(O)c(-c2ccc(O)c(O)c2)oc2cc(O)cc(O)c12`, the inhibition result in assay [1] was “Active”.

`COC(=O)/C=C/C=C/C=C/C=C/C(=O)Nc1c(O)c2ccc(O)c(Cl)c2oc1=O`: half-maximal inhibition in assay [5] (IC50) required 50 µM.

Regarding `O=C(CCCCCC(=O)Oc1c(-c2ccc(O)c(O)c2)oc2cc(O)cc(O)c2c1=O)NCC(=O)Nc1ccc(O)cc1`, the inhibition result in assay [1] was “Active”. The results for the fold change (FC) in assay [2] and in assay [4] were 2.4 and 5, respectively. For the same molecule, the IC50 in assay [3] is > 200 µM; in assay [5], 84.7 µM. Besides, the inhibition result in assay [6] is “inactive”.
